Experimental findings from patent publication US9375004B2 (Bayer Intellectual Property GmbH, priority 2010, dated 2016) are described below.

Like-named read-outs stand apart in the source and are kept apart here.

The test system of one data set is Pyrenophora teres. Nature of the data set: Pyrenophora teres-test (barley)/preventive. Format: in vivo. As to conditions: 500 ppm, preventive, evaluated 8 days after inoculation.
Data set [1] concerns Fusarium nivale (var. majus). Nature of the data set: Fusarium nivale (var. majus)-test (wheat)/preventive. As to conditions: for Efficacy: preventive, evaluated 5 days after inoculation.
Description: Fusarium Nivale (Var. Majus)-Test (Wheat)/Preventive
Solvent: 49 parts by weight of N,N-dimethylacetamide
(§1) Emulsifier: 1 part by weight of alkylaryl polyglycol ether
After the spray coating has been dried, the plants are slightly injured by using a sandblast and afterwards they are sprayed with a conidia suspension of Fusarium nivale (var. majus).
The plants are placed in the greenhouse under a translucent incubation cabinet at a temperature of approximately 10° C. and a relative atmospheric humidity of approximately 100%.
The test is evaluated 5 days after the inoculation.
The next data set relates to Alternaria solani. The experiment in a line: Alternaria test (tomato)/preventive. Type of data set: in vivo. As to conditions: 500 ppm, preventive, evaluated 7 days after inoculation.
The next data set concerns Uromyces appendiculatus. As to conditions: 100 ppm, beans, preventive, evaluated 10 days after inoculation.
Another data set concerns Botrytis cinerea. The experiment in a line: Botrytis test (beans)/preventive. The settings on record: 100 ppm, preventive, lesion size 2 days after inoculation.
For a further data set, the system named is Septoria tritici. The experiment in a line: Septoria tritici-test (wheat)/preventive. The settings on record: 500 ppm, preventive, evaluated 21 days after inoculation. Format: in vivo.
The subject of a further data set is Puccinia triticina. Nature of the data set: Puccinia triticina-test (wheat)/preventive. The settings on record: 500 ppm, preventive, evaluated 8 days after inoculation. Format: in vivo.
Another data set deals with Phakopsora pachyrhizi. Nature of the data set: Phakopsora test (soybeans)/protective. Type of data set: in vivo. The settings on record: 250 ppm, protective, evaluated 11 days after inoculation.
A further data set relates to Sphaerotheca fuliginea. Nature of the data set: Sphaerotheca test (cucumber)/preventive. Type of data set: in vivo. The settings on record: 500 ppm, preventive, evaluated 7 days after inoculation.
The subject of a further data set is Venturia inaequalis. Nature of the data set: Venturia test (apples)/preventive. As to conditions: 100 ppm, preventive, evaluated 10 days after inoculation.
The next data set deals with Pyricularia oryzae. Format: in vivo.
Data set [2] in a line: logP by HPLC on reversed-phase column (EEC Directive 79/831 Annex V.A8). The settings on record: HPLC on reversed-phase column (C 18), EEC Directive 79/831 Annex V.A8.
In a further data set the test system is Rhizoctonia solani. The experiment in a line: Rhizoctonia test (rice)/protective. Type of data set: in vivo. As to conditions: 250 ppm, protective, evaluated 4 days after inoculation. How it is done:
Rhizoctonia Test (Rice)/Protective
Solvent: 28.5 parts by weight of acetone
Emulsifier: 1.5 part by weight of alkylaryl polyglycol ether
1 day after the treatment, the plants are inoculated with hyphae of Rhizoctonia solani.
Evaluation is carried out 4 days after the inoculation.

In a further data set the test system is Cochliobolus miyabeanus. Nature of the data set: Cochliobolus test (rice)/protective. Format: in vivo. The settings on record: 250 ppm, protective, evaluated 4 days after inoculation.

Description for Botrytis cinerea: Botrytis Test (Beans)/Preventive
(§2) Solvent: 24.5 parts by weight of acetone • 24.5 parts by weight of N,N-dimethylformamide
as §1
After the spray coating has dried on, 2 small pieces of agar covered with growth of Botrytis cinerea are placed on each leaf. The inoculated plants are placed in a darkened chamber at 20° C. and a relative atmospheric humidity of 100%.
2 days after the inoculation, the size of the lesions on the leaves is evaluated.
Description for Venturia inaequalis: Venturia Test (Apples)/Preventive
as §2, §1
After the spray coating has dried on, the plants are inoculated with an aqueous conidia suspension of the causal agent of apple scab (Venturia inaequalis) and then remain for 1 day in an incubation cabinet at approximately 20° C. and a relative atmospheric humidity of 100%.
The plants are then placed in a greenhouse at approximately 21° C. and a relative atmospheric humidity of approximately 90%.
The test is evaluated 10 days after the inoculation.

On to `CC1CC(C)(C)c2cccc(NC(=O)c3c(C(F)F)nn(C)c3F)c21` (racemic) [Example 64], for which the Efficacy with Pyrenophora teres turned out to be 100%; in data set [1] (500 ppm), 75%; in the data set on Alternaria solani it was 95%; in the data set on Uromyces appendiculatus, 100%; in the data set with Botrytis cinerea, 95%; in the data set with Septoria tritici it was 100%. Further, the Efficacy with Puccinia triticina worked out at 100%; in the data set with Phakopsora pachyrhizi, 97%; with Sphaerotheca fuliginea, 100%; with Venturia inaequalis it was 99%.
Consider `Cn1cc(C(=O)Nc2ccc(F)cc2-c2ccc(Cl)c(Cl)c2)c(C(F)F)n1` [11 from WO-2003/070705, N-(3′,4′-dichloro-5-fluorobiphenyl-2-yl)-3-(difluoromethyl)-1-methyl-1H-pyrazole-4-carboxamide, reference compound], for which the Efficacy was found to be 20% in the data set on Pyricularia oryzae (100 ppm, rice, protective, evaluated 5 days after inoculation) and 80% with Pyricularia oryzae (250 ppm, rice, protective, evaluated 5 days after inoculation). Further, the protection result in the data set with Pyricularia oryzae (dose of 100 ppm and 250 ppm of active ingredient, rice) was “poor (less than 20%) protection to good (at least 70%) protection”.
Usually logP stands for the decadic logarithm of the partition coefficient of the neutral form, usually between octanol and water. As to `CC(C)CCc1ccccc1NC(=O)c1c(C(F)F)nn(C)c1F` [Example 7], the Efficacy is listed as 100% in the data set on Pyrenophora teres; 95% in the data set with Alternaria solani; 97% in the data set with Pyricularia oryzae (in vivo); 88% with Septoria tritici; 100% with Rhizoctonia solani; 100% with Puccinia triticina. In addition, the Efficacy in the data set on Cochliobolus miyabeanus is 80%. In data set [2], the logP is reported as 3.60.
`CC(C)CC(C)c1ccccc1NC(=O)c1c(C(F)F)nn(C)c1F` (centres unmarked) [Example 11]: the Efficacy stood at 100% with Pyrenophora teres; 100% in the data set with Alternaria solani; 100% in the data set on Uromyces appendiculatus; 95% with Botrytis cinerea; 89% in the data set with Septoria tritici; 100% in the data set with Rhizoctonia solani. For the same compound, the Efficacy with Puccinia triticina, in the data set on Sphaerotheca fuliginea and with Venturia inaequalis was 100% each time. In data set [2], this compound returned a logP of 3.85.
In the case of `CCCCCc1ccccc1NC(=O)c1c(C(F)F)nn(C)c1Cl` [Example 12], the Efficacy in the data set on Pyrenophora teres is recorded as 100%; in data set [1] (250 ppm), 71%; in data set [1] (500 ppm), 86%; in the data set with Uromyces appendiculatus it was 100%; with Pyricularia oryzae (in vivo), 93%; in the data set on Botrytis cinerea, 99%. The Efficacy was determined as 71% with Septoria tritici, 100% in the data set on Rhizoctonia solani, 100% in the data set with Puccinia triticina and 100% with Venturia inaequalis. In addition, in data set [1] (dose of 250 ppm and 500 ppm of active ingredient), the protection entry is reported as “at least 70%”. The compound further gave a logP in data set [2] of 4.01.
Turning to `CC(CC(C)(C)C)c1ccccc1NC(=O)c1c(C(F)F)nn(C)c1Cl` (centres unmarked) [Example 22], the Efficacy in the data set on Pyrenophora teres was 100%; in [1] (500 ppm), 86%; with Uromyces appendiculatus, 100%; in the data set on Pyricularia oryzae (in vivo) it was 80%; in the data set on Botrytis cinerea, 100%; in the data set on Rhizoctonia solani, 100%. Further, the Efficacy with Puccinia triticina and in the data set with Venturia inaequalis was 100% in each case. Further, in data set [2], the log partition coefficient (logP) worked out at 4.31.
Turning to `Cn1nc(C(F)F)c(C(=O)Nc2ccccc2CC[Si](C)(C)C)c1Cl` [Example 24], the Efficacy in the data set with Pyrenophora teres was 86%; in [1] (500 ppm), 86%; in the data set with Uromyces appendiculatus, 100%; in the data set with Pyricularia oryzae (in vivo) it was 98%; with Botrytis cinerea it was 78%; with Rhizoctonia solani it was 100%. For the same compound, the Efficacy in the data set on Puccinia triticina and in the data set on Venturia inaequalis was 100% in each case. This compound returned a logP in data set [2] of 4.36.
Compound `Cn1nc(C(F)F)c(C(=O)Nc2ccccc2OC(F)(F)C(F)C(F)(F)F)c1Cl` (centres unmarked) [Example 31] gave a logP in data set [2] of 3.71. Further, the Efficacy with Alternaria solani is on record as 100%; in the data set with Pyricularia oryzae (in vivo), 98%; with Rhizoctonia solani, 100%; in the data set with Sphaerotheca fuliginea it was 91%; with Cochliobolus miyabeanus it was 80%.
As to `Cn1nc(C(F)F)c(C(=O)Nc2ccccc2C2CC3CCC2C3)c1F` (centres unmarked) [Example 51], the Efficacy in the data set on Pyrenophora teres was found to be 100%; with Alternaria solani it was 95%; in the data set on Uromyces appendiculatus it was 100%; with Botrytis cinerea, 100%; in the data set with Septoria tritici, 80%; in the data set on Puccinia triticina it was 71%. Besides, the values for the Efficacy in the data set with Phakopsora pachyrhizi, in the data set on Sphaerotheca fuliginea and in the data set with Venturia inaequalis were 93%, 96% and 100%, respectively. Also, the logP in data set [2] is recorded as 3.78.
As for `CC(C)C1C2CCC1c1c(NC(=O)c3c(C(F)F)nn(C)c3Cl)cccc12` (centres unmarked) [Example 67], the Efficacy is 100% in the data set on Pyrenophora teres; 71% in data set [1] (250 ppm); 100% in data set [1] (500 ppm); 100% with Uromyces appendiculatus; 96% with Pyricularia oryzae (in vivo); 99% in the data set on Botrytis cinerea. For the same compound, the Efficacy in the data set with Septoria tritici is on record as 100%; with Rhizoctonia solani it was 100%; in the data set with Puccinia triticina, 100%; in the data set with Cochliobolus miyabeanus it was 90%; in the data set with Venturia inaequalis, 100%. In data set [2], this compound came in with a logP of 4.55.
With `Cn1nc(C(F)F)c(C(=O)Nc2ccc(F)cc2-c2ccc(Cl)cc2)c1Cl` [Example 83], in data set [2], the logP is reported as 3.76. Besides, the Efficacy is listed as 94% with Alternaria solani; 100% in the data set on Uromyces appendiculatus; 100% in the data set on Botrytis cinerea; 94% in the data set with Phakopsora pachyrhizi; 100% with Sphaerotheca fuliginea; 100% with Venturia inaequalis.
In turn, `Cn1nc(C(F)F)c(C(=O)Nc2ccc(F)cc2-c2ccc(Cl)cc2)c1F` [Example 84] showed a logP in data set [2] of 3.46. Also, the Efficacy in the data set with Alternaria solani is 94%; with Uromyces appendiculatus, 99%; in the data set on Botrytis cinerea, 99%; with Phakopsora pachyrhizi it was 80%; in the data set with Venturia inaequalis it was 100%.
As for `Cn1nc(C(F)F)c(C(=O)Nc2ccc(F)cc2-c2ccc(Cl)c(F)c2)c1Cl` [Example 98], the Efficacy is 100% in the data set with Pyrenophora teres; 86% in data set [1] (500 ppm); 100% in the data set on Uromyces appendiculatus; 100% with Botrytis cinerea; 100% with Rhizoctonia solani; 100% in the data set on Puccinia triticina. The Efficacy in the data set on Cochliobolus miyabeanus stood at 93%; in the data set on Venturia inaequalis, 100%. In data set [2], this compound had a logP of 3.74.
For `Cn1nc(C(F)F)c(C(=O)Nc2ccccc2-c2ccc(Cl)c(F)c2)c1Cl` [Example 99], the Efficacy is listed as 100% in the data set with Pyrenophora teres; 100% in data set [1] (500 ppm); 100% in the data set with Uromyces appendiculatus; 97% with Botrytis cinerea; 86% with Septoria tritici; 100% in the data set on Rhizoctonia solani. The values for the Efficacy with Puccinia triticina, with Cochliobolus miyabeanus and in the data set on Venturia inaequalis were 100%, 95% and 100%, respectively. Besides, the logP in data set [2] amounted to 3.71.
Regarding `Cn1nc(C(F)F)c(C(=O)Nc2ccccc2-c2cc(F)c(F)c(F)c2)c1Cl` [Example 105], the Efficacy (in the data set on Pyrenophora teres; in [1] (500 ppm); in the data set on Uromyces appendiculatus (listed as 105 from this invention); in the data set on Botrytis cinerea; in the data set with Rhizoctonia solani; in the data set on Puccinia triticina) was 100% in each case. In addition, the Efficacy in the data set on Cochliobolus miyabeanus amounted to 95%; in the data set with Venturia inaequalis, 100%. In data set [2], the logP came to 3.52.
Consider `Cn1nc(C(F)F)c(C(=O)Nc2ccc(F)cc2-c2ccc(Cl)c(Cl)c2)c1Cl` [Example 117], for which the Efficacy was determined as 100% in the data set on Pyrenophora teres; 100% in the data set on Uromyces appendiculatus; 99% in the data set with Botrytis cinerea; 100% in the data set on Puccinia triticina; 98% with Phakopsora pachyrhizi; 100% in the data set with Venturia inaequalis. In [2], this compound returned a logP of 4.04.
As to `Cn1nc(C(F)F)c(C(=O)Nc2ccccc2-c2ccc(Br)cc2)c1F` [Example 139], the Efficacy in the data set with Pyrenophora teres is recorded as 100%; in data set [1] (500 ppm) it was 93%; with Uromyces appendiculatus it was 100%; in the data set with Botrytis cinerea, 100%; with Septoria tritici, 100%; with Rhizoctonia solani it was 100%. For the same compound, the Efficacy turned out to be 100% with Puccinia triticina, 95% with Cochliobolus miyabeanus and 100% in the data set with Venturia inaequalis. Also, the logP in data set [2] worked out at 3.56.
In data set [2], `CC(C)OCc1cccc(NC(=O)c2c(C(F)F)nn(C)c2F)c1` [Example 166] came in with a logP of 2.72. The Efficacy in the data set on Cochliobolus miyabeanus was found to be 80%.
